{"source": "patent US20230355749A1", "about": "“Immunomodulatory Compounds And Use Thereof For The Treatment And/Or Prevention Of Infectious Diseases” (AC […], priority 2020, published 2023)", "key": {"[1]": {"system": "Bone-marrow derived dendritic cells (BMDC)", "assay": "Co-stimulatory marker and MHC surface expression by FACS in BMDC stimulated with LPS and OVA257-264 peptide", "type": "cell-based, C57BL/6 mice", "settings": "pre-treated 1 hour, then LPS 100 ng/ml + OVA257-264 peptide 10 μM for 24 hours; live CD11c+ population", "protocol": "(§1) Cells were analysed for expression of co-stimulatory markers and MHC complexes at the cell surface by FACS, gated on the live CD11c+ population. Panel A) Median fluorescence intensity ([…]) of CD40, CD80 and CD86 expression. Panel B) Overall expression of MHC-II, given by the expression of I-Ab. Panel C) Relative surface expression of MHC-I (H2-Kb): OVA257-264 peptide complexes over the total surface expression of H2-Kb. Panel D) Quantification of cytokine secretion by ELISA. Data is expressed as the mean+/−standard error of the mean (SEM). Statistical significance was determined by a student's t-test with *p≤0.05.\n(§2) LPS (100 ng/ml) was used in this instance as a model Toll-like Receptor ligand for a pathogen and a surrogate for the licensed TLR-specific adjuvant-MPLA."}, "[2]": {"system": "Bone-marrow derived dendritic cells (BMDC)", "assay": "Cytokine secretion by ELISA in BMDC stimulated with LPS and OVA257-264 peptide", "type": "cell-based, C57BL/6 mice", "settings": "LPS 100 ng/ml + OVA257-264 peptide 10 μM, after 24 hours", "protocol": "as §1, §2"}, "LPS-matured BMDC": {"system": "LPS-matured BMDC", "settings": "DC matured with 100 ng/ml LPS 36 h; pretreated 1 hour, Eα55-68 pulse 3 hours, analyzed after 24 hours; live CD11c+MHC-II(I-Ab) high; vehicle 1553.33±54.93, p=0.03", "source_text": "Specifically, these complexes were recognized using fluorochrome-labelled monoclonal antibodies of Y-Ae for I-Ab: Eα55-68 complexes and 25-D1.16 for H2-Kb: OVA257-264 complexes. In all experiments, BMDC were differentiated in vitro from bone marrow precursor cells of C57BL/6 mice using GM-CSF and IL-4 at 250 and 5 UI/ml, respectively."}, "[3]": {"system": "immature DC (CD11c+MHC-II int)", "assay": "Endocytosis (uptake) of OVA-AF647 protein by immature DC", "type": "cell-based, C57BL/6 mice", "settings": "pretreated 3 hours (ACB1801s 20 μM), OVA-AF647 2 μg/ml; for percentage of OVA-AF647+ cells: 3 mice, vehicle 71.00+/−0.058; for Median Fluorescence Intensity of OVA-AF647 within the positive population (amount of protein taken up): vehicle 5533.33+/−60.26, P≤0.0001"}}, "note": "Structures can show the parent of a compound that is named as a salt.", "data": [{"smiles": "COc1ccc2c(c1)[nH]c1c(C)nccc12.Cl", "note": "[ACB1801s, harmine HCl]", "values": [{"measurement": "expression of CD80/CD86 co-stimulatory markers", "setting": "[1]", "result": "increased"}, {"measurement": "overall expression of surface MHC-II (I-Ab)", "setting": "[1]", "result": "increased"}, {"measurement": "levels of pro-inflammatory cytokines (IL-6, and TNF)", "setting": "[2]", "result": "reduced"}, {"measurement": "Median Fluorescence Intensity (MFI) of I-Ab: Eα55-68 specific complexes", "setting": "LPS-matured BMDC", "result": "1742.33±15.62"}, {"measurement": "percentage of OVA-AF647+ cells", "setting": "[3]", "result": "72.37+/−0.94"}, {"measurement": "Median Fluorescence Intensity of OVA-AF647 within the positive population (amount of protein taken up)", "setting": "[3]", "result": "6725.67+/−41.450"}]}, {"smiles": "Cc1[nH]ccc2c1[nH]c1cc(=O)ccc12", "note": "[ACB1804s, harmol HCl]", "values": [{"measurement": "percentage of OVA-AF647+ cells", "setting": "[3]", "result": "73.867+/−0.751"}, {"measurement": "Median Fluorescence Intensity of OVA-AF647 within the positive population (amount of protein taken up)", "setting": "[3]", "result": "6628+/−98.475"}]}]}
